# Assay results from PMC11720106, “Synthesis of Pyrazole-Based Inhibitors of the Bacterial Enzyme N-Succinyl-L,L-2,6-Diaminopimelic Acid Desuccinylase (DapE) as Potential Antibiotics” (International Journal of Molecular Sciences, 2024).
# Values joined by “and” are separate entries in the source; they are usually repeats but may differ in a detail not shown here. Equal entries are not always repeated.
# How the values were obtained:
# [1] = target: T1, HiDapE (Haemophilus influenzae, UniProt P44514); test: Discontinuous ninhydrin-based HiDapE inhibition assay; format: biochemical; conditions: 8 nM HiDapE, 2 mM N6-methyl-L,L-SDAP; for IC50: 5–200 μM inhibitor; for inhibition at 100 µM: pH 7.5, 100 μM inhibitor
# Protocol: Inhibitory Assay Protocol: A discontinuous inhibition assay was performed utilizing a Techne PCR Thermal Cycler System. The volume of each component was adjusted to fit a total reaction volume of 100 μL. The final potential inhibitor concentration was 100 μM for pyrazoles 7a–7r for screening experiments or 5–200 μM for IC50 experiments. All potential inhibitors were dissolved in neat dimethylsulfoxide (DMSO), and the pre-assay concentrations were adjusted to give a final concentration of 5% DMSO in the assay. The final HiDapE concentration was 8 nM. To a 50 mM HEPES (pH 7.5) buffered solution at 30 °C was added the selected inhibitor followed by HiDapE and incubated for 10 min. N^6-Methyl-L,L-SDAP (2 mM) was added, and the mixture was allowed to react for 10 min, followed by heating at 100 °C for 1 min and then cooled to 0 °C for 1 min. A 2% ninhydrin solution (100 μL) was added, and the mixture was mixed well by rapid pipetting while cooled at 0 °C. The reaction was then heated at 80 °C for 15 min. The absorbance of an 80 μL aliquot was recorded at 570 nm on a BioTek Synergy 2 microplate reader (Biotek Instruments, Winooski, VT, USA). All inhibition assays were performed in triplicate. The data were then exported and analyzed using Prism (version 10.4.1, GraphPad Prism, Boston, MA, USA).
# [2] = target: T1, HiDapE; test: Thermal shift assay (SYPRO Orange); format: binding; conditions: for Tm1 (HiDapE): 200 nM enzyme, 10X dye
# Protocol: A thermal shift assay was conducted to observe changes in the thermal stability of DapE under various concentrations of the inhibitor (R)-7q, as summarized in Table 2. These studies were conducted on a Step One Real-Time PCR System^TM (Applied Biosystems, Waltham, MA, USA) and associated QuantStudio software (Version 7) through the fluorescence of the SYPRO Orange dye (Fisher Scientific, Waltham, MA, USA) during protein denaturation. We also used the thermal shift assay results to calculate the Ki value of pyrazole (R)-7q. […] Additionally, we observed a subsequent Tm2 at 78.0 °C involving a destabilization of the enzyme, as shown by the approximate −3 °C negative shift in melt temperature as the inhibitor increases in concentration, indicating at this elevated temperature that the inhibitor is binding to primarily the molten globule state. We have previously observed the second melt temperature with the DapE enzyme.
# Thermal Shift Assay Protocol: Thermal shift studies were conducted on a Step One Real-Time PCR System and the associated QuantStudio software. Protein denaturation was measured by detecting the change in fluorescence of the SYPRO Orange dye. HiDapE was used at a final concentration of 200 nM, and SYPRO Orange was used at a final concentration of 10×. The experiment was carried out in 10 μL triplicates in 50 mM HEPES buffer at pH 7.5 in nanopure water, and the inhibitor concentrations were selected based on the half-maximal inhibitory concentration (IC50) values of the inhibitor. Sample solutions were dispensed into a 96-well optical reaction plate (Thermo Fisher Scientific, Kalamazoo, MI, USA), and the plate was sealed with an optical PCR plate sheet (Thermo Fisher Scientific, Kalamazoo, MI, USA). The assay was run according to Bhayani. Melting curves were obtained from the negative derivative and exported from the instrument to Microsoft Excel (Version 2402). The negative first derivatives of the melting curves were differentiated into the […]. Tm values were plotted against the log [concentration], and the Ki values were calculated using a derived Van’t Hoff equation according to Bhayani
# [3] = target: T1, HiDapE; test: Discontinuous kinetic competition assay with HiDapE; format: biochemical
# Protocol: We performed kinetic competition assays to investigate and confirm the binding mode of the pyrazole inhibitors. […] The velocity of the HiDapE enzyme was measured with different concentrations of substrate from 0 to 100 μM, and the plot is shown in Figure 2. After running the AICc statistical analysis to compare noncompetitive and competitive models, it was determined that a competitive binding mode is over 100 times more likely than noncompetitive binding with a 99.2% probability.
# Kinetic assay Protocol: A discontinuous kinetic assay was performed utilizing a Techne PCR Thermal Cycler System. The volume of each component was adjusted to fit a total reaction volume of 100 μL. The final potential inhibitor concentration was 0, 20, 40, 60, and 100 μM for pyrazole 7r, where the inhibitor was dissolved in dimethylsulfoxide (DMSO), and the pre-assay concentrations were adjusted to give a final concentration of 5% DMSO in the assay. The in-assay HiDapE concentration was 8 nM. To a 50 mM HEPES (pH 7.5) buffered solution at 30 °C was added the selected inhibitor followed by HiDapE and incubated for 10 min. N^6-Methyl-L,L-SDAP at varied concentrations (0–8 mM) were added, and the mixture was allowed to react for 10 min, followed by heating at 100 °C for 1 min and then cooled to 0 °C for 1 min. A 2% ninhydrin solution (50 μL) was added, and the mixture was mixed well by rapid pipetting while cooled at 0 °C. The reaction was then heated at 80 °C for 15 min. The absorbance of an 80 μL aliquot was recorded at 570 nm on a BioTek Synergy 2 microplate reader. All concentrations were performed in triplicate. The data were then exported and analyzed using Prism using a non-linear regression Michaelis–Menten equation and using AICc statistical analysis to determine which inhibitory binding mode was preferred.
# T1 sequence (P44514 whole entry): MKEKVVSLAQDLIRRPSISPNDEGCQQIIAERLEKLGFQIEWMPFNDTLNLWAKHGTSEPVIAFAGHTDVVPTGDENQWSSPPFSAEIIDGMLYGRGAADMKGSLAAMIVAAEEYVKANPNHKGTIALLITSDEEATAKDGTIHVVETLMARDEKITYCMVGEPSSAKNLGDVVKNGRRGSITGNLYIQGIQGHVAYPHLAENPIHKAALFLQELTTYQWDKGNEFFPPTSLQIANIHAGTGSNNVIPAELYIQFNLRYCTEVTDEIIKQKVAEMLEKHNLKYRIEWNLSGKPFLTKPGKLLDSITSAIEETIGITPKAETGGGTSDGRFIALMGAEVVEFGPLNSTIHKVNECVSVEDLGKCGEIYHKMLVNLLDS
smiles,measurement,setting,value
"Cc1cc(SCC(=O)Nc2nccs2)n(-c2ccccc2)n1 [Compound 7a, 2-((3-Methyl-1-phenyl-1H-pyrazol-5-yl)thio)-N-(thiazol-2-yl)acetamide]",IC50,[1]; pH 7.5,22.4 µM
same,inhibition at 100 µM,[1]; triplicate,95.2 ± 0.6%
"Cc1cc(SCC(=O)Nc2ccon2)n(-c2ccccc2)n1 [Compound 7b, N-(Isoxazol-3-yl)-2-((3-methyl-1-phenyl-1H-pyrazol-5-yl)thio)acetamide]",inhibition at 100 µM,[1]; triplicate,20.3 ± 3.6%
"Cc1cc(SCC(=O)Nc2ccccc2)n(-c2ccccc2)n1 [Compound 7c, 2-((3-Methyl-1-phenyl-1H-pyrazol-5-yl)thio)-N-phenylacetamide]",inhibition at 100 µM,[1]; triplicate,80.5 ± 3%
"Cc1cc(SCC(=O)Nc2ccccn2)n(-c2ccccc2)n1 [Compound 7d, 2-((3-Methyl-1-phenyl-1H-pyrazol-5-yl)thio)-N-(pyridine-2-yl)acetamide]",IC50,[1]; pH 7.5,17.9 µM
same,inhibition at 100 µM,[1]; triplicate,85.7 ± 1.2%
"Cc1ccc(NC(=O)CSc2cc(C)nn2-c2ccccc2)nc1 [Compound 7e, 2-((3-Methyl-1-phenyl-1H-pyrazol-5-yl)thio)-N-(5-methylpyridin-2-yl)acetamide]",inhibition at 100 µM,[1]; triplicate,64.3 ± 5.5%
"Cc1cc(SCC(=O)Nc2ccc(Cl)cn2)n(-c2ccccc2)n1 [Compound 7f, N-(5-Chloropyridin-2-yl)-2-((3-methyl-1-phenyl-1H-pyrazol-5-yl)thio)acetamide]",inhibition at 100 µM,[1]; triplicate,54.2 ± 0.3%
"Cc1cc(SCC(=O)Nc2ncccn2)n(-c2ccccc2)n1 [Compound 7g, 2-((3-Methyl-1-phenyl-1H-pyrazol-5-yl)thio)-N-(pyrimidin-2-yl)acetamide]",inhibition at 100 µM,[1]; triplicate,32.4 ± 3.4%
"Cc1cc(SCC(=O)Nc2cnccn2)n(-c2ccccc2)n1 [Compound 7h, 2-((3-Methyl-1-phenyl-1H-pyrazol-5-yl)thio)-N-(pyrazin-2-yl)acetamide]",IC50,[1]; pH 7.5,20.2 µM
same,inhibition at 100 µM,[1]; triplicate,96.2%
"CCN(CC)C(=O)CSc1cc(C)nn1-c1ccccc1 [Compound 7j, N,N-Diethyl-2-((3-methyl-1-phenyl-1H-pyrazol-5-yl)thio)acetamide]",inhibition at 100 µM,[1]; triplicate,47.4 ± 7.2%
"Cc1cc(SCC(=O)Nc2nc3ccccc3[nH]2)n(-c2ccccc2)n1 [Compound 7k, N-(1H-Benzo[d]imidazol-2-yl)-2-((3-methyl-1-phenyl-1H-pyrazol-5-yl)thio)acetamide]",inhibition at 100 µM,[1]; triplicate,36.9 ± 2.7%
"Cc1cc(SC(C)C(=O)Nc2nccs2)n(-c2ccccc2)n1 (centres unmarked) [Compound 7l, 2-((3-Methyl-1-phenyl-1H-pyrazol-5-yl)thio)-N-(thiazol-2-yl)propanamide]",inhibition at 100 µM,[1]; triplicate,28 ± 1.8%
"Cc1cc(SC(C)C(=O)Nc2ccon2)n(-c2ccccc2)n1 (centres unmarked) [Compound 7m, N-(Isoxazol-3-yl)-2-((3-methyl-1-phenyl-1H-pyrazol-5-yl)thio)propanamide]",inhibition at 100 µM,[1]; triplicate,19.5 ± 0.1%
"Cc1cc(SC(C)C(=O)Nc2ccccc2)n(-c2ccccc2)n1 (centres unmarked) [Compound 7n, 2-((3-Methyl-1-phenyl-1H-pyrazol-5-yl)thio)-N-phenylpropanamide]",inhibition at 100 µM,[1]; triplicate,79.4 ± 3.6%
"Cc1cc(SC(C)C(=O)NCc2ccccc2)n(-c2ccccc2)n1 (centres unmarked) [Compound 7o, N-Benzyl-2-((3-methyl-1-phenyl-1H-pyrazol-5-yl)thio)propanamide]",inhibition at 100 µM,[1]; triplicate,63.2 ± 1.8%
"Cc1cc(SC(C)C(=O)Nc2ccccn2)n(-c2ccccc2)n1 (centres unmarked) [Compound 7p, 2-((3-Methyl-1-phenyl-1H-pyrazol-5-yl)thio)-N-(pyridine-2-yl)propanamide]",IC50,[1]; pH 7.5,35.6 µM and 35.7 µM
same,inhibition at 100 µM,[1]; triplicate,97.4 ± 2%
"Cc1cc(S[C@H](C)C(=O)Nc2ccccn2)n(-c2ccccc2)n1 [Compound 7q, (R)-2-((3-Methyl-1-phenyl-1H-pyrazol-5-yl)thio)-N-(pyridine-2-yl)propanamide]",% Inhibition at 100 μM,"[1]; 100 μM inhibitor, pH 7.5, triplicate",99.1 ± 1.6%
same,IC50,[1]; pH 7.5,18.8 µM
same,inhibition at 100 µM,[1]; triplicate,99%
same,Tm1 (HiDapE),[2]; 1 μM inhibitor,50.8 +/− 0.6 °C
same,Tm1 (HiDapE),[2]; 5 μM inhibitor,50.1 +/− 0.1 °C
same,Tm1 (HiDapE),[2]; 10 μM inhibitor,50.2 +/− 0.1 °C
same,Tm1 (HiDapE),[2]; 20 μM inhibitor,52.7 +/− 0.3 °C
same,Tm1 (HiDapE),[2]; 40 μM inhibitor,55.7 +/− 0.3 °C
same,Tm1 (HiDapE),[2]; 60 μM inhibitor,60.6 +/− 0.7 °C
same,Tm1 (HiDapE),[2]; 80 μM inhibitor,61.3 +/− 0.5 °C
same,Tm1 (HiDapE),[2]; 100 μM inhibitor,63.1 +/− 0.2 °C
same,Tm,[2]; as stated in the abstract,50.2 °C
same,Ki,"[2]; calculated from positive melt temperature shift at Tm1, Van't Hoff equation",17.3 ± 2.8 µM
same,shift in melt temperature at Tm2,"[2]; negative shift as the inhibitor increases in concentration, Tm2 78.0 °C",~−3 °C
same,shift in melt temperature at Tm1,"[2]; positive shift as the inhibitor increases in concentration, Tm1 50.2 °C",+13 °C
same,binding mode (mode of inhibition),[3]; AICc comparison of competitive and noncompetitive models,competitive
same,likelihood of competitive over noncompetitive binding,[3]; AICc statistical analysis,over 100 times
same,probability of competitive binding mode,[3]; AICc statistical analysis,99.2%
"Cc1cc(S[C@@H](C)C(=O)Nc2ccccn2)n(-c2ccccc2)n1 [Compound 7r, (S)-2-((3-Methyl-1-phenyl-1H-pyrazol-5-yl)thio)-N-(pyridine-2-yl)propanamide]",inhibition at 100 µM,[1]; triplicate,14.6 ± 9.5%
